# Reference: the supplement of paper PMC13380429
# Tests used:
# Conditions in all cases: 72 h
# Caco-2 [1] = experiment: cell viability relative to DMSO; higher = less toxic
# Calu-3 [2] = experiment: as above
# HepG2 [3] = experiment: as above
# U2OS [4] = experiment: as above
# Vero E6 [5] = experiment: as above
# Caco-2 [6] = experiment: relative viability EC50 (midpoint between 100% and the lowest measured viability); higher = less toxic
# Calu-3 [7] = experiment: as above
# HepG2 [8] = experiment: as above
# U2OS [9] = experiment: as above
# Vero E6 [10] = experiment: as above
# Caco-2 [11] = experiment: drug sensitivity score (DSS) for viability; higher = more toxic; extreme values may be limits of the assay
# Calu-3 [12] = experiment: as above
# HepG2 [13] = experiment: as above
# U2OS [14] = experiment: as above
# Vero E6 [15] = experiment: as above
SMILES,cell viability (Caco-2 [1]; 1 nM) [%],cell viability (Caco-2 [1]; 10 nM) [%],cell viability (Caco-2 [1]; 100 nM) [%],cell viability (Caco-2 [1]; 1000 nM) [%],cell viability (Caco-2 [1]; 10000 nM) [%],cell viability (Calu-3 [2]; 1 nM) [%],cell viability (Calu-3 [2]; 10 nM) [%],cell viability (Calu-3 [2]; 100 nM) [%],cell viability (Calu-3 [2]; 1000 nM) [%],cell viability (Calu-3 [2]; 10000 nM) [%],cell viability (HepG2 [3]; 1 nM) [%],cell viability (HepG2 [3]; 10 nM) [%],cell viability (HepG2 [3]; 100 nM) [%],cell viability (HepG2 [3]; 1000 nM) [%],cell viability (HepG2 [3]; 10000 nM) [%],cell viability (U2OS [4]; 1 nM) [%],cell viability (U2OS [4]; 10 nM) [%],cell viability (U2OS [4]; 100 nM) [%],cell viability (U2OS [4]; 1000 nM) [%],cell viability (U2OS [4]; 10000 nM) [%],cell viability (Vero E6 [5]; 1 nM) [%],cell viability (Vero E6 [5]; 10 nM) [%],cell viability (Vero E6 [5]; 100 nM) [%],cell viability (Vero E6 [5]; 1000 nM) [%],cell viability (Vero E6 [5]; 10000 nM) [%],relative viability EC50 (Caco-2 [6]) [µM],relative viability EC50 (Calu-3 [7]) [µM],relative viability EC50 (HepG2 [8]) [µM],relative viability EC50 (U2OS [9]) [µM],relative viability EC50 (Vero E6 [10]) [µM],drug sensitivity score (Caco-2 [11]),drug sensitivity score (Calu-3 [12]),drug sensitivity score (HepG2 [13]),drug sensitivity score (U2OS [14]),drug sensitivity score (Vero E6 [15])
CNCCc1ccc(O)c(O)c1 [deoxyepinephrine],95.5,95.8,106,102,89.6,94.5,104,95.8,91.6,98.1,97.5,97.2,108,91.8,96.7,95,97,94.3,101,95.5,107,99.6,100,101,103,> 10,> 10,> 10,> 10,> 10,0,0,0,0,0
CNCCCN1c2ccccc2CCc2ccccc21 [desipramine],98.9,111,102,94.3,90.6,104,101,104,109,96.2,119,114,105,113,89,104,102,104,98.1,97.1,107,103,97,102,99.9,> 10,> 10,> 10,> 10,> 10,0,0,0,0,0
C[C@]12CC[C@H]3[C@@H](CCC4=CC(=O)CC[C@@]43C)[C@@H]1CC[C@@H]2C(=O)CO [desoxycortone],100,101,102,97,87.4,98.5,95.1,91.5,105,95.8,101,95.8,97,87.1,104,103,99.2,97.1,97.6,95.4,101,99.2,93.6,95.8,101,> 10,> 10,> 10,> 10,> 10,0.2,0,0,0,0
c1ccc2c(c1)CN1CCCC1=N2 [desoxypeganine],97.6,113,105,94.7,97.9,95.1,111,99.6,89.2,107,89.7,75.1,91.6,91.1,96.8,98.7,101,93,94.5,99.3,98.4,96.5,105,98,95.2,> 10,> 10,> 10,> 10,> 10,0,0,0,0,0
c1ccc2c(c1)sc1ccccc12 [dibenzothiophene],101,98.7,99.9,91.1,99.8,99.4,103,92.1,96.1,101,102,96.8,104,106,101,105,101,104,96.7,104,100,96.6,99,98.5,98.8,> 10,> 10,> 10,> 10,> 10,0,0,0,0,0
CN1CCN(c2cc3c(cc2F)c(=O)c(C(=O)O)cn3-c2ccc(F)cc2)CC1 [difloxacin],92.5,95.1,102,94.7,91.1,105,90.1,95.2,98.6,108,93.6,110,105,103,93.7,92,95.4,98.9,99.1,104,109,101,96.7,106,99.1,> 10,> 10,> 10,> 10,> 10,0,0,0,0,0
O=C(O)CCc1cc(I)c(Oc2ccc(O)cc2)c(I)c1 [diiodothyropropionic-acid],113,124,94.4,113,109,96.8,101,94.5,99.6,93.6,104,95,113,103,99.8,96.2,99.1,95.8,98.4,96.6,105,103,104,87.1,92.1,> 10,> 10,> 10,> 10,> 10,0,0,0,0,0.7
CCCCC[C@H](O)/C=C/[C@H]1[C@H](O)CC(=O)[C@@H]1C/C=C\CCCC(=O)O [dinoprostone],101,104,101,102,95.2,96.3,90,90.2,94,94.8,99.8,104,90.4,103,99,101,98.2,102,98.5,98.3,101,107,101,103,94.9,> 10,> 10,> 10,> 10,> 10,0,0,0,0,0
C[C@H](N)C(=O)N[C@@H](CCC(N)=O)C(=O)O [dipeptamin],97.4,104,96.5,95.2,110,101,98.9,94.7,95.1,103,104,93.2,95.5,100,96.1,95.9,106,98.6,103,98.9,99.5,98.1,94.1,98,95.4,> 10,> 10,> 10,> 10,> 10,0,0,0,0,0
CC(C)N(CCC(C(N)=O)(c1ccccc1)c1ccccn1)C(C)C (stereo not given) [disopyramide],94.4,104,101,102,91.8,101,93.2,96.3,96.9,89.7,105,86.8,94.7,91.9,99.4,103,102,100,99.7,95.7,102,101,96,97.7,97.5,> 10,> 10,> 10,> 10,> 10,0,0,0,0,0
CCc1ccc(C(=O)C(C)CN2CCCCC2)cc1 (stereo not given) [eperisone],98.6,106,91.7,102,98.5,103,93.7,87.5,101,88.8,107,95.5,95.8,95.4,100,93.6,102,96.2,99.9,94.9,105,99.7,106,103,105,> 10,> 10,> 10,> 10,> 10,0,0,0,0,0
NC1=NCC2c3ccccc3Cc3ccccc3N12 (stereo not given) [epinastine],91.6,87.4,95,98.9,93.3,99.3,103,98.2,98,92,97.3,102,105,99.1,102,97,102,91.7,92.8,98.6,98.6,105,99.7,96,99.5,> 10,> 10,> 10,> 10,> 10,0,0,0,0,0
C[C@]12CC[C@@H]3c4ccc(O)cc4CC[C@H]3[C@@H]1C[C@@H](O)[C@@H]2O [estriol],97.5,96.3,101,105,105,94.5,96.5,95.6,93.7,103,106,103,96.8,90.4,96.1,99.3,97.4,101,101,102,96,99.1,96.5,89.2,105,> 10,> 10,> 10,> 10,> 10,0,0,0,0,0
